Results taken from patent US20230023332A1, “OLEAN-PHENYLACRYLAMIDE DERIVATIVE, METHOD FOR PREPARING SAME, AND USE THEREOF” (Lunan Pharmaceutical Group Corporation, priority 2019, published 2023).

Tested on: rat embryonic cardiomyocytes H9C2
Test: MTT proliferation inhibition / toxicity, H9C2
Format: cell-based
Conditions: Rattus norvegicus, H9c2, 48 h, H9C2 cardiomyocytes, MTT, 48 h; read-out: Inhibitory activity (IC50) against proliferation, H9C2
Experimental: (§1) The anti-tumor activity of the compounds of the present invention was determined by the method of methyl thiazolyl tetrazolium (MTT), Bardoxolone Methyl (CDDO-Me) being selected as a positive control medicament.
(§2) Instruments: ultra-clean bench (SW-CJ-1FD, AIRTECH, Suzhou Antai Airtech Co. Ltd.), constant-temperature CO2 incubator (3111, Thermo, USA), inverted biomicroscope (IX71, OLYMPUS, Japan), ELISA microplate reader (Model 680, BIO-RAD, USA), platform shaker (Kylin-bell lab Instruments), autoclave (YXO.SG4I.280, Shanghai Huaxian), and centrifuge (SIGMA).
(§3) Reagents: DMEM (GIBCO), fetal bovine serum (GIBCO), trypsin (SIGMA), and DMSO (SIGMA).
(§4) Cell strains: human non-small cell lung cancer cell strain A549, human liver cancer cell strain HepG2, human breast cancer cell strain MCF-7, human renal tubular epithelial cells HK-2, rat embryonic cardiomyocytes H9C2 (all provided by Jiangsu KeyGEN BioTECH Co., Ltd.).
(§5) Methods: the cryopreserved cell strains were resuscitated and cultured in a CO2 incubator at a constant temperature of 37° C. with liquid being changed once daily. Plating was carried out when the cell strains were in a good state in the exponential phase. 1 mL of 0.25% trypsin solution was added for digestion for 1-2 min. The cell status was observed under the microscope, and when the adherent cells became round and shrunk, the digestion solution was aspirated and 1-2 mL of a DMEM medium containing 10% fetal bovine serum was added to obtain a cell suspension, on which a cell count was performed. The amount of required cell suspension was calculated on the basis of 5×10^4 cells per well and the total number of wells. The cell suspension was inoculated on a 96-well plate at 100 μL/well, the surroundings being blocked with PBS, followed by incubation in a CO2 incubator at a constant temperature of 37° C. for 24 h.
(§6) The test medicament, positive control medicament CDDO-Me, and blank control group DMSO were prepared in DMEM media to a final concentration of 5 μM/well, each medicament being placed in 3 replicate wells, followed by incubation for 48 h. The MTT reagent was added to the 96-well plate at 10 μL/well to further incubate for 4 h. The medium in the plate was aspirated and 100 μL of DMSO was added to each well, followed by shaking on the platform shaker for 10 min such that the crystals were dissolved. The absorbance of each well was examined by the ELISA microplate reader at a wavelength of 570 nm, and the cell inhibition rate was calculated according to the formula hereinafter. The mean value of three preliminary screening results was taken as the final inhibition rate thereof.
(§7) Cell inhibition rate (%)=[(OD value of blank control−OD value of dosing cohort)/OD value of blank control group]×100%

SMILES	IC50
CC1(C)CC[C@]2(NC(=O)/C=C(\C#N)c3ccccc3)CC[C@]3(C)[C@H](C(=O)C=C4[C@@]5(C)C=C(C#N)C(=O)C(C)(C)[C@@H]5CC[C@]43C)[C@@H]2C1 [Compound I-13]	7 ± 9 nM

Same assay, conditions: Rattus norvegicus; H9C2 cardiomyocytes, MTT, 48 h; read-out: Inhibitory activity (IC50) against proliferation, H9C2

SMILES	IC50
CC1(C)CC[C@]2(NC(=O)/C(C#N)=C/c3ccc(C(F)(F)F)cc3)CC[C@]3(C)[C@H](C(=O)C=C4[C@@]5(C)C=C(C#N)C(=O)C(C)(C)[C@@H]5CC[C@]43C)[C@@H]2C1 [Compound I-10]	233 ± 10 nM
COc1ccc(/C(C#N)=C/C(=O)N[C@]23CCC(C)(C)C[C@H]2[C@H]2C(=O)C=C4[C@@]5(C)C=C(C#N)C(=O)C(C)(C)[C@@H]5CC[C@@]4(C)[C@]2(C)CC3)cc1 [Compound I-15]	146 ± 12 nM

Tested on: human renal tubular epithelial cells HK-2
Test: MTT proliferation inhibition / toxicity, HK-2
Format: cell-based
Conditions: Homo sapiens; HK-2 cells, MTT, 48 h; read-out: Inhibitory activity (IC50) against proliferation, HK-2
Experimental: as §1, §2, §3, §4, §5, §6, §7

SMILES	IC50
CC1(C)CC[C@]2(NC(=O)/C(C#N)=C/c3ccc(C(F)(F)F)cc3)CC[C@]3(C)[C@H](C(=O)C=C4[C@@]5(C)C=C(C#N)C(=O)C(C)(C)[C@@H]5CC[C@]43C)[C@@H]2C1 [Compound I-10]	234 ± 117 nM
COc1ccc(/C(C#N)=C/C(=O)N[C@]23CCC(C)(C)C[C@H]2[C@H]2C(=O)C=C4[C@@]5(C)C=C(C#N)C(=O)C(C)(C)[C@@H]5CC[C@@]4(C)[C@]2(C)CC3)cc1 [Compound I-15]	350 ± 37 nM
CC1(C)CC[C@]2(NC(=O)/C=C(\C#N)c3ccccc3)CC[C@]3(C)[C@H](C(=O)C=C4[C@@]5(C)C=C(C#N)C(=O)C(C)(C)[C@@H]5CC[C@]43C)[C@@H]2C1 [Compound I-13]	473 ± 630 nM

Same assay, conditions: statement in words

SMILES	toxicity to human renal tubular epithelial cells HK-2
CC1(C)CC[C@]2(NC(=O)/C=C(\C#N)c3ccccc3)CC[C@]3(C)[C@H](C(=O)C=C4[C@@]5(C)C=C(C#N)C(=O)C(C)(C)[C@@H]5CC[C@]43C)[C@@H]2C1 [Compound I-13]	lower toxicity

Tested on: human breast cancer cell strain MCF-7
Test: MTT proliferation inhibition, MCF-7
Format: cell-based
Conditions: Homo sapiens, MCF7, MCF-7 cells, 48 h, read-out: Inhibitory activity (IC50) against proliferation, MCF-7
Experimental: as §1, §2, §3, §4, §5, §6, §7

SMILES	IC50
CC1(C)CC[C@]2(NC(=O)/C(C#N)=C/c3ccc(C(F)(F)F)cc3)CC[C@]3(C)[C@H](C(=O)C=C4[C@@]5(C)C=C(C#N)C(=O)C(C)(C)[C@@H]5CC[C@]43C)[C@@H]2C1 [Compound I-10]	460 ± 105 nM
COc1ccc(/C(C#N)=C/C(=O)N[C@]23CCC(C)(C)C[C@H]2[C@H]2C(=O)C=C4[C@@]5(C)C=C(C#N)C(=O)C(C)(C)[C@@H]5CC[C@@]4(C)[C@]2(C)CC3)cc1 [Compound I-15]	551 ± 140 nM
CC1(C)CC[C@]2(NC(=O)/C=C(\C#N)c3ccccc3)CC[C@]3(C)[C@H](C(=O)C=C4[C@@]5(C)C=C(C#N)C(=O)C(C)(C)[C@@H]5CC[C@]43C)[C@@H]2C1 [Compound I-13]	375 ± 130 nM

Tested on: human non-small cell lung cancer cell strain A549
Test: MTT proliferation inhibition, A549
Format: cell-based
Conditions: Homo sapiens, A549 cells, 48 h, read-out: Inhibitory activity (IC50) against proliferation, A549
Experimental: as §1, §2, §3, §4, §5, §6, §7

SMILES	IC50
CC1(C)CC[C@]2(NC(=O)/C(C#N)=C/c3ccc(C(F)(F)F)cc3)CC[C@]3(C)[C@H](C(=O)C=C4[C@@]5(C)C=C(C#N)C(=O)C(C)(C)[C@@H]5CC[C@]43C)[C@@H]2C1 [Compound I-10]	362 ± 12 nM
COc1ccc(/C(C#N)=C/C(=O)N[C@]23CCC(C)(C)C[C@H]2[C@H]2C(=O)C=C4[C@@]5(C)C=C(C#N)C(=O)C(C)(C)[C@@H]5CC[C@@]4(C)[C@]2(C)CC3)cc1 [Compound I-15]	658 ± 58 nM
CC1(C)CC[C@]2(NC(=O)/C=C(\C#N)c3ccccc3)CC[C@]3(C)[C@H](C(=O)C=C4[C@@]5(C)C=C(C#N)C(=O)C(C)(C)[C@@H]5CC[C@]43C)[C@@H]2C1 [Compound I-13]	414 ± 17 nM

Tested on: human liver cancer cell strain HepG2
Test: MTT proliferation inhibition, HepG2
Format: cell-based
Conditions: Homo sapiens, HepG2 cells, 48 h, read-out: Inhibitory activity (IC50) against proliferation, HepG2
Experimental: as §1, §2, §3, §4, §5
The MTT reagent was added to the 96-well plate at 10 μL/well to further incubate for 4 h. The medium in the plate was aspirated and 100 μL of DMSO was added to each well, followed by shaking on the platform shaker for 10 min such that the crystals were dissolved. […] The mean value of three preliminary screening results was taken as the final inhibition rate thereof.
as §7

SMILES	IC50
CC1(C)CC[C@]2(NC(=O)/C(C#N)=C/c3ccc(C(F)(F)F)cc3)CC[C@]3(C)[C@H](C(=O)C=C4[C@@]5(C)C=C(C#N)C(=O)C(C)(C)[C@@H]5CC[C@]43C)[C@@H]2C1 [Compound I-10]	297 ± 11 nM
COc1ccc(/C(C#N)=C/C(=O)N[C@]23CCC(C)(C)C[C@H]2[C@H]2C(=O)C=C4[C@@]5(C)C=C(C#N)C(=O)C(C)(C)[C@@H]5CC[C@@]4(C)[C@]2(C)CC3)cc1 [Compound I-15]	524 ± 32 nM
CC1(C)CC[C@]2(NC(=O)/C=C(\C#N)c3ccccc3)CC[C@]3(C)[C@H](C(=O)C=C4[C@@]5(C)C=C(C#N)C(=O)C(C)(C)[C@@H]5CC[C@]43C)[C@@H]2C1 [Compound I-13]	328 ± 13 nM
